From patent US20220144823A1, “PYRAZOLOPYRIDINE DERIVATIVES AS INHIBITORS OF PASK” (Galapagos NV, priority 2019, published 2022)

Tested on: diabetic non human primates (NHPs) under a high-calorie diet (HCD)
Test: Diabetic monkey model;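 note: male obese diabetic cynomolgus monkeys fed a high-fat, high-fructose diet, randomized into 4 groups, dosed with test compound for 8 weeks, then a 4-week washout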
Protocol: The aim of this assay is to determine the effect of a test compound on lipid metabolism and glucose handling in diabetic non human primates (NHPs) under a high-calorie diet (HCD) consisting of high-fat and high-fructose.
Male obese diabetic cynomolgus monkeys were selected based on their body weights, glucose, insulin levels, and blood lipid parameters. The inclusion criteria were the following: age ≤22 years; fasted plasma glucose between 120 and 300 mg/dL; triglycerides >125 mg/dL, and insulin >75 mIU/mL.
The animals are maintained at 20-23° C. and 40-70% humidity on a 12 h light/dark cycle (7 AM-7 PM). Water is provided ad libitum and the animals are fed twice daily with the high-calorie diet (HCD) enriched with seasonal fruits or vegetables.
After the baseline period, animals were randomized into 4 groups according to body weight, as well as their blood glucose and lipid parameters.
The following parameters were measured once per week during the 8 weeks of treatment and also during the 4 weeks of washout: • body weight • food consumption • blood chemistry (fasted blood glucose, plasma triglycerides, plasma total cholesterol, low density lipoproteins (LDL), and high density lipoproteins (HDL))
Oral glucose tolerance was measured in fasted animals before treatment initiation (baseline), at the end of the treatment period (week 8), and after 4 weeks of washout (week 12).

Cc1nn(C(C)C)c(C)c1-c1cnn2ccc(-c3cc(C(=O)O)co3)cc12 [Cpd 18, 5-[3-(1-isopropyl-3,5-dimethyl-pyrazol-4-yl)pyrazolo[1,5-a]pyridin-5-yl]furan-3-carboxylic acid]
HDL change (% change from baseline) (Group 2, week 1, treatment): 14.1% | LDL change (% change from baseline) (Group 2, week 1, treatment): 52.8% | Total cholesterol change (% change from baseline) (Group 2, week 1, treatment): 48.2 % change from baseline | Triglyceride change (% change from baseline) (Group 2, week 1, treatment): −33.3 % change from baseline | HDL change (% change from baseline) (Group 2, week 2, treatment): 8.4% | LDL change (% change from baseline) (Group 2, week 2, treatment): 38.3% | Total cholesterol change (% change from baseline) (Group 2, week 2, treatment): 33.8 % change from baseline | Triglyceride change (% change from baseline) (Group 2, week 2, treatment): −31.2 % change from baseline | HDL change (% change from baseline) (Group 2, week 3, treatment): 6.2% | LDL change (% change from baseline) (Group 2, week 3, treatment): 16.6% | Total cholesterol change (% change from baseline) (Group 2, week 3, treatment): 18.6 % change from baseline | Triglyceride change (% change from baseline) (Group 2, week 3, treatment): −36.7 % change from baseline | HDL change (% change from baseline) (Group 2, week 4, treatment): −4.3% | LDL change (% change from baseline) (Group 2, week 4, treatment): 31.0% | Total cholesterol change (% change from baseline) (Group 2, week 4, treatment): 28.0 % change from baseline | Triglyceride change (% change from baseline) (Group 2, week 4, treatment): −44.2 % change from baseline | HDL change (% change from baseline) (Group 2, week 5, treatment): 4.2% | LDL change (% change from baseline) (Group 2, week 5, treatment): 5.1% | Total cholesterol change (% change from baseline) (Group 2, week 5, treatment): 3.2 % change from baseline | Triglyceride change (% change from baseline) (Group 2, week 5, treatment): −62.6 % change from baseline | HDL change (% change from baseline) (Group 2, week 6, treatment): 11.7% | LDL change (% change from baseline) (Group 2, week 6, treatment): −10.5% | Total cholesterol change (% change from baseline) (Group 2, week 6, treatment): −6.7 % change from baseline | Triglyceride change (% change from baseline) (Group 2, week 6, treatment): −59.6 % change from baseline | HDL change (% change from baseline) (Group 2, week 7, treatment): 13.0% | LDL change (% change from baseline) (Group 2, week 7, treatment): −17.2% | Total cholesterol change (% change from baseline) (Group 2, week 7, treatment): −12.0 % change from baseline | Triglyceride change (% change from baseline) (Group 2, week 7, treatment): −55.9 % change from baseline | HDL change (% change from baseline) (Group 2, week 8, treatment): 12.4% | LDL change (% change from baseline) (Group 2, week 8, treatment): −10.5% | Total cholesterol change (% change from baseline) (Group 2, week 8, treatment): −5.1 % change from baseline | Triglyceride change (% change from baseline) (Group 2, week 8, treatment): −39.3 % change from baseline | HDL change (% change from baseline) (Group 2, week 9, washout): 13.5% | LDL change (% change from baseline) (Group 2, week 9, washout): −1.6% | Total cholesterol change (% change from baseline) (Group 2, week 9, washout): 5.8 % change from baseline | Triglyceride change (% change from baseline) (Group 2, week 9, washout): −33.4 % change from baseline | HDL change (% change from baseline) (Group 2, week 10, washout): 22.7% | LDL change (% change from baseline) (Group 2, week 10, washout): 38.6% | Total cholesterol change (% change from baseline) (Group 2, week 10, washout): 42.4 % change from baseline | Triglyceride change (% change from baseline) (Group 2, week 10, washout): 9.8 % change from baseline | HDL change (% change from baseline) (Group 2, week 11, washout): 21.2% | LDL change (% change from baseline) (Group 2, week 11, washout): 81.5% | Total cholesterol change (% change from baseline) (Group 2, week 11, washout): 83.8 % change from baseline | Triglyceride change (% change from baseline) (Group 2, week 11, washout): 49.7 % change from baseline | HDL change (% change from baseline) (Group 2, week 12, washout): 24.9% | LDL change (% change from baseline) (Group 2, week 12, washout): 118.6% | Total cholesterol change (% change from baseline) (Group 2, week 12, washout): 115.8 % change from baseline | Triglyceride change (% change from baseline) (Group 2, week 12, washout): 32.2 % change from baseline | HDL change (% change from baseline) (Group 3, week 1, treatment): 18.6% | LDL change (% change from baseline) (Group 3, week 1, treatment): 60.5% | Total cholesterol change (% change from baseline) (Group 3, week 1, treatment): 46.1 % change from baseline | Triglyceride change (% change from baseline) (Group 3, week 1, treatment): −20.2 % change from baseline | HDL change (% change from baseline) (Group 3, week 2, treatment): 3.7% | LDL change (% change from baseline) (Group 3, week 2, treatment): 58.3% | Total cholesterol change (% change from baseline) (Group 3, week 2, treatment): 41.5 % change from baseline | Triglyceride change (% change from baseline) (Group 3, week 2, treatment): −56.1 % change from baseline | HDL change (% change from baseline) (Group 3, week 3, treatment): 7.7% | LDL change (% change from baseline) (Group 3, week 3, treatment): 35.1% | Total cholesterol change (% change from baseline) (Group 3, week 3, treatment): 22.3 % change from baseline | Triglyceride change (% change from baseline) (Group 3, week 3, treatment): −41.6 % change from baseline | HDL change (% change from baseline) (Group 3, week 4, treatment): −12.0% | LDL change (% change from baseline) (Group 3, week 4, treatment): −28.7% | Total cholesterol change (% change from baseline) (Group 3, week 4, treatment): −22.3 % change from baseline | Triglyceride change (% change from baseline) (Group 3, week 4, treatment): −44.5 % change from baseline | HDL change (% change from baseline) (Group 3, week 5, treatment): 1.0% | LDL change (% change from baseline) (Group 3, week 5, treatment): −27.5% | Total cholesterol change (% change from baseline) (Group 3, week 5, treatment): −21.0 % change from baseline | Triglyceride change (% change from baseline) (Group 3, week 5, treatment): −44.4 % change from baseline | HDL change (% change from baseline) (Group 3, week 6, treatment): 9.5% | LDL change (% change from baseline) (Group 3, week 6, treatment): −33.2% | Total cholesterol change (% change from baseline) (Group 3, week 6, treatment): −26.5 % change from baseline | Triglyceride change (% change from baseline) (Group 3, week 6, treatment): −46.2 % change from baseline | HDL change (% change from baseline) (Group 3, week 7, treatment): 8.3% | LDL change (% change from baseline) (Group 3, week 7, treatment): −39.4% | Total cholesterol change (% change from baseline) (Group 3, week 7, treatment): −30.5 % change from baseline | Triglyceride change (% change from baseline) (Group 3, week 7, treatment): −35.0 % change from baseline | HDL change (% change from baseline) (Group 3, week 8, treatment): −0.9% | LDL change (% change from baseline) (Group 3, week 8, treatment): −27.9% | Total cholesterol change (% change from baseline) (Group 3, week 8, treatment): −20.4 % change from baseline | Triglyceride change (% change from baseline) (Group 3, week 8, treatment): −37.4 % change from baseline | HDL change (% change from baseline) (Group 3, week 9, washout): 1.5% | LDL change (% change from baseline) (Group 3, week 9, washout): −41.8%
